Laboratory results taken from US7671062B2, “Modulators of chemokine receptor activity, crystalline forms and process” (Bristol-Myers Squibb Company, priority 2006, dated 2010).
Read-outs that look alike come from different tables or passages of the source. Each block holds one compound with its values, some of them ahead of it.

Columns and labels:
[1] = molecular target: T1, hERG (Homo sapiens, UniProt Q12809); assay: hERG flux (Tl+ flux, FLIPR) in HEK293 cells; format: cell-based; design: expressed in transfected cells; host or cells: HEK293
[2] = system: EAE, a model of multiple sclerosis; format: in vivo
[3] = system: monkey PBMC's; assay: In vitro chemotaxis assay with monkey PBMC's; format: cell-based, Cynomolgus monkey; details: Primates, highly variable
From the text: (§1) The first employs monkey PBMC's while the second uses L1.2 cells stably transfected with Cyno CCR2.

[4] = molecular target: Cyno CCR2 (Macaca fascicularis); assay: In vitro chemotaxis assay with L1.2 cells stably transfected with Cyno CCR2; format: cell-based, Cynomolgus monkey
From the text: as §1

[5] = molecular target: T1, hERG; assay: hERG patch clamp, HEK-293 cells; details: pH 7.4
[6] = Single-dose pharmacokinetics in monkeys; details: male, Cynomolgus, cynomolgus monkey
[7] = Parallel Artificial Membrane Permeability Assay (PAMPA); details: mean ± SD (n in parentheses)
[8] = system: monocyte/macrophage infiltration into peritoneal cavity; assay: 48-hour thioglycollate (TG)-induced peritonitis model in hCCR2 KI mouse; format: in vivo, hCCR2 KI mice; details: for % inhibition of monocyte/macrophage infiltration: FACS-based analysis of total monocyte/macrophages, 48 h; for EC50: Mus musculus, two separate studies, estimated, read-out: average EC50 for inhibition of monocyte/macrophage infiltration; for inhibition of monocyte/macrophage infiltration: flow cytometry (F4/80, Ly6C)
Method: The hCCR2 KI mice (C57BL/6-SVJ129) were injected intraperitoneally with 1 ml of thioglycollate (TG) (Hardy Diagnostics). For each study, eight male mice per group were used. […] The vehicle used was 0.01 N HCl in water. Forty-eight hours post TG injection, peritoneal lavages were performed by injecting 5 ml PBS/10 mM EDTA/10% BSA into the peritoneal cavity.
Cytospins were performed to determine differential leukocyte counts. The cells were stained for 3 minutes with Wright-Giemsa Stain (Sigma-Aldrich) and then rinsed with deionized water for 5 minutes. Differential counts were calculated based on a total of 200 cells counted per sample.

[9] = system: infiltration of mononuclear cells to the skin tissue injected with human MCP-1; assay: Intradermal (ID) MCP-1 challenge model in Cynomolgus monkey; format: in vivo; design: PMN score / Eos score / Total cell score: scale not given here; details: for inhibition of mononuclear cell infiltration: second study, naive monkeys
Method: (§2) Intradermal injection of MCP-1 results in the infiltration of mononuclear cells to the injection site. This model was initially developed to assess the inhibitory effect of CCR2 antagonists on the infiltration of mononuclear cells to the skin tissue injected with human MCP-1.
(§3) Immediately after dosing on Day 3, all animals received at least 2 intradermal injections of 10 μg (50 μL/injection ) of human MCP-1 (R & D Systems) and at least 2 intradermal injections of its DPBS control (50 μl/injection) at separate sites on the dorsal thorax. Dermal biopsies of all sites were obtained at approximately 18 hours following MCP-1 (or DPBS) challenge. Biopsies were processed for semi-quantitative histological evaluation. Representative sections of skin samples were examined by light microscopy, microscopic lesions and cellular infiltration were noted, and their incidences were tabulated.
(§4) For both studies, in addition to biopsy analysis, blood was collected and evaluated for complete blood counts and cell differentials. Also evaluated were plasma samples for compound concentrations, and serum samples for systemic inflammatory mediator levels.

[10] = as above; format: in vivo; design: PMN score / Eos score / Total cell score: scale not given here; details: both sexes, cynomolgus monkey, plasma, read-out: Free plasma conc
Method: as §2, §3, §4

[11] = Single-dose pharmacokinetics in rats; details: rat
[12] = molecular target: human cardiac sodium channel SCN5A (Homo sapiens, UniProt Q14524); assay: Sodium channel patch clamp, HEK-293 cells; format: cell-based; details: read-out: Na+ channel patch clamp (% Inhib.)
Method: The compound was tested at a protein-free aqueous buffer. For determining steady state inhibition, sodium currents were elicited every 5 seconds using the following voltage protocol: cells were held at a potential of −90 mV and stepped to −20 mV for 60 ms. Effects were calculated by measuring inhibition of peak current during the test pulse to −20 mV. Rate-dependence of inhibition was assessed by stimulation at frequencies of 1 Hz and 4 Hz.

[13] = molecular target: T2, CCR2 (Homo sapiens, UniProt P41597); assay: In vivo receptor occupancy in blood of hCCR2 KI mice, 48-hour TG peritonitis model (Gaddum equation); details: for Concentration of Mouse MCP-1 in plasma / Concentration of free Example 1 in plasma: 48-hour TG peritonitis; for % free CCR2 / % mouse MCP-1 bound CCR2 / % of Example 1-bound CCR2: Gaddum equation
[14] = Moisture-sorption isotherm; format: physicochemical; details: ca. 25% to ca. 75% RH at 25° C.
Method: A sample of the oily, gel-like (amorphous) free base of N-((1R,2S,5R)-5-(isopropyl(methyl)amino)-2-((S)-2-oxo-3-(6-(trifluoromethyl)quinazolin-4-ylamino)pyrrolidin-1-yl)cyclohexyl)acetamide (approx 0.5 g), extracted from a sample of the BSA salt, was suspended in heptane (approx 5 mL). The flask was scratched with a metal spatula, and the suspension was stirred vigorously by a magnetic stir bar at 25° C. A white slurry of crystalline particles was obtained after 24 hours of stirring. The slurry was filtered and the wet cake dried in vacuo (40° C.) to provide the pure N-2 form (confirmed by PXRD) of the free base. Form N-2 was characterized by an XRD pattern which matches the simulated pattern generated from the single crystal structure data. Form N-2 is the neat (no solvate molecules or no molecules of water or solvent) form of N-((1R,2S,5R)-5-(isopropyl(methyl)amino)-2-((S)-2-oxo-3-(6-(trifluoromethyl)quinazolin-4-ylamino)pyrrolidin-1-yl)cyclohexyl)acetamide, free base. Form N-2, was characterized by a DSC thermogram having a melt endotherm onset typically at ca. 158° C. to ca. 162° C. Form N-2 was characterized by a TGA thermal curve having a negligible weight loss at up to ca. 145° C. which agreed with the single crystal structure data. The weight loss corresponded to adventitious solvent.

[15] = molecular target: T2, CCR2; assay: Cold competition ligand binding to hCCR2 using 125I-human MCP-1; details: 125I-human MCP-1, n=8

T2 sequence (P41597 whole entry): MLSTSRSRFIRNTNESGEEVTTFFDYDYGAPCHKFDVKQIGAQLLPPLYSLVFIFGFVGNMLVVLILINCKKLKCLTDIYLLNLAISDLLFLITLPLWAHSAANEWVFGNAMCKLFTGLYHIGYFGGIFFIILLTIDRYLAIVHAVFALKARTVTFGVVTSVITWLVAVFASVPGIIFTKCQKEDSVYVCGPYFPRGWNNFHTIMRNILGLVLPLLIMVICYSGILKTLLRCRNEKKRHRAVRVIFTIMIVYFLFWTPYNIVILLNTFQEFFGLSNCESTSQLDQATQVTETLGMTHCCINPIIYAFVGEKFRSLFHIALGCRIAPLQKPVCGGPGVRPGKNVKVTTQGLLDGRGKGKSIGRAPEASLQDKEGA
T1 sequence (Q12809 whole entry): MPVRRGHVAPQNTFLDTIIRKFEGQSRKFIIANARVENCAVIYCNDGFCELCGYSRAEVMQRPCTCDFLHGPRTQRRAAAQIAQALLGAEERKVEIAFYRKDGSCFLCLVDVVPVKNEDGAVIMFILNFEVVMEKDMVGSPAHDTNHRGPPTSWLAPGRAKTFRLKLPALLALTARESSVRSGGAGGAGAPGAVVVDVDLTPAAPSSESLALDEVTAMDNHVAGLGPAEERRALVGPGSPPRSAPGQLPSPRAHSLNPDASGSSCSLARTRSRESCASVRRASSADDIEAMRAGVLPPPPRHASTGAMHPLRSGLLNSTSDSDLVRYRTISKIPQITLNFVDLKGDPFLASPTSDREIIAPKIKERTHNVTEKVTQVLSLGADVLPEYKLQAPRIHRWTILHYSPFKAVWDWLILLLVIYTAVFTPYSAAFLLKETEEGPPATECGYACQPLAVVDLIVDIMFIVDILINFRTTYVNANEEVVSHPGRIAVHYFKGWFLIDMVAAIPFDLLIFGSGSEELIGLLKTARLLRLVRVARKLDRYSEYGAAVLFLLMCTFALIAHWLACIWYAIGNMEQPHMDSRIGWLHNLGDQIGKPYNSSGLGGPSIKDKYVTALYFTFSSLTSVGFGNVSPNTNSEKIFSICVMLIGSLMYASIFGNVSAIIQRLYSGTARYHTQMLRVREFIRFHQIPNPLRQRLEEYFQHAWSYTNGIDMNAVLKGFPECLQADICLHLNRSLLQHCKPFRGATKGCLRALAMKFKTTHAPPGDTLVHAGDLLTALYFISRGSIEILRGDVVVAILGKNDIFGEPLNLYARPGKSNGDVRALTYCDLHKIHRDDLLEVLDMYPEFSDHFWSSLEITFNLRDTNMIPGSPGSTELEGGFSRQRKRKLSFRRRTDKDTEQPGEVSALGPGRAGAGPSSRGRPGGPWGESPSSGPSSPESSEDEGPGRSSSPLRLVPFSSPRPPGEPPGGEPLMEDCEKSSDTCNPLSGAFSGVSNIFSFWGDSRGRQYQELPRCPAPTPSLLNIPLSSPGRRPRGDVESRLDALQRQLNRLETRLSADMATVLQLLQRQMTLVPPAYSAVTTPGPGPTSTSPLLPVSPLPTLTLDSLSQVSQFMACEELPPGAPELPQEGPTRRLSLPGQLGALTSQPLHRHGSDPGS
Chain of human cardiac sodium channel SCN5A (Q14524 whole entry): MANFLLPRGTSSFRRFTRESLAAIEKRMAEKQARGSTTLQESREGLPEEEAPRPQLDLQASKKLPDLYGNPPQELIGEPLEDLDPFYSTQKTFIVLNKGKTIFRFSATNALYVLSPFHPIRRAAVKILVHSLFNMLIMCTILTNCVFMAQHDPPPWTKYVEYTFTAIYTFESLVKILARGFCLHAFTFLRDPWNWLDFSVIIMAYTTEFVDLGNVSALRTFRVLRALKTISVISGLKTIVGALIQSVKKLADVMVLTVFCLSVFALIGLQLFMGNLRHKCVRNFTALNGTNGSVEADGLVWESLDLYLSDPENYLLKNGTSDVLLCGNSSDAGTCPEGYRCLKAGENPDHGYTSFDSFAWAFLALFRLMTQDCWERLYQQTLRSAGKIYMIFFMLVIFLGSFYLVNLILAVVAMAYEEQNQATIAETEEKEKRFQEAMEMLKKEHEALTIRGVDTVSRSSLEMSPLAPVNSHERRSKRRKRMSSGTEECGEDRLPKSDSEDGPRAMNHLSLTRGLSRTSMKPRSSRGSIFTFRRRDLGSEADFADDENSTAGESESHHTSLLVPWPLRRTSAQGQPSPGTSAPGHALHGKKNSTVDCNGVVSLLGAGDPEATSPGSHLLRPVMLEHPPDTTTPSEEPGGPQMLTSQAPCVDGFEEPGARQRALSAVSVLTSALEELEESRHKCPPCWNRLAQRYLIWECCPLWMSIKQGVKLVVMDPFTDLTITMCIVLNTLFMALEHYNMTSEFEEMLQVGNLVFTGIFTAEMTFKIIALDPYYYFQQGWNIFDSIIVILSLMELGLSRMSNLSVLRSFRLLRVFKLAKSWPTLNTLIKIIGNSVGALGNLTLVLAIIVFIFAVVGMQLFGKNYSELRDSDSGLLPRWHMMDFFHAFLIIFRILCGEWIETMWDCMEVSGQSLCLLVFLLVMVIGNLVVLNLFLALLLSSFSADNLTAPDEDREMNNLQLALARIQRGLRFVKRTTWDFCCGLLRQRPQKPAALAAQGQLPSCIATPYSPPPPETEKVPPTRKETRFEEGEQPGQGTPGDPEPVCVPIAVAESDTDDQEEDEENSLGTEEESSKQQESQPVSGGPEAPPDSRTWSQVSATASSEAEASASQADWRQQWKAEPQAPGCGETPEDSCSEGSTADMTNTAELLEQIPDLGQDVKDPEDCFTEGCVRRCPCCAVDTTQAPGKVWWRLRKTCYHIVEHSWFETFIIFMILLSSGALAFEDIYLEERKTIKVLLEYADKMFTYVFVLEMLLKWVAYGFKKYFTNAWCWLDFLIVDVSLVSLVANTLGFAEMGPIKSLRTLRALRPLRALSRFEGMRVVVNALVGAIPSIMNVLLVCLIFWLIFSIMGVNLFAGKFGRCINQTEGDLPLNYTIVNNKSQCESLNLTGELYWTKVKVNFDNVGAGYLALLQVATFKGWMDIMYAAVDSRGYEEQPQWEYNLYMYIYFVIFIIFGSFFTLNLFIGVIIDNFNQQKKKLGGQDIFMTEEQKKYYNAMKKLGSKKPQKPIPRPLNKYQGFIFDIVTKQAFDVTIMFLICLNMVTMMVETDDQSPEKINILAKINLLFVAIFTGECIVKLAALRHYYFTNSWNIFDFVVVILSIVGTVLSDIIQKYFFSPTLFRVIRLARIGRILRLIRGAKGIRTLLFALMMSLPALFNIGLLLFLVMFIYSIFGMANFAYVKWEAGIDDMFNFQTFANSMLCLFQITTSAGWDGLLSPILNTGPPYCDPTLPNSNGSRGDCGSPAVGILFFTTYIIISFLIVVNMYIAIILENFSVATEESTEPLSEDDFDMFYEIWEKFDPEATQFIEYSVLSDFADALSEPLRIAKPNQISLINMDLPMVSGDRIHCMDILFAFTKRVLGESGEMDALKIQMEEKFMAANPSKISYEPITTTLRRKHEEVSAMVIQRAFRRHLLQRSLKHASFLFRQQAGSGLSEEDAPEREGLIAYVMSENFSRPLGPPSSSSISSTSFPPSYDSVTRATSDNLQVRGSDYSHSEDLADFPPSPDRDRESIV
Chain of Cyno CCR2 (Macaca fascicularis) (Z9BGH1DMK8 1-374): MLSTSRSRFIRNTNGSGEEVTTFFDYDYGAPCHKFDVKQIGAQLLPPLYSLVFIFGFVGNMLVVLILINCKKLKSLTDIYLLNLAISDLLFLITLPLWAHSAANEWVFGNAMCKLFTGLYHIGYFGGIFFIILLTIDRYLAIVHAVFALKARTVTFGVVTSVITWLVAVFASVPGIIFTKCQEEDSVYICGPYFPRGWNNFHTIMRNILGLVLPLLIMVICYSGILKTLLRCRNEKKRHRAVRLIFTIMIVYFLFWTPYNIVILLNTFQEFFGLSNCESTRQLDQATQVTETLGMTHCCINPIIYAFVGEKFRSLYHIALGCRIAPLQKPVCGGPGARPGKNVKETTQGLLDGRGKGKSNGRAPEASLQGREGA

Compound: CC(=O)N[C@@H]1C[C@H](N(C)C(C)C)CC[C@@H]1N1CC[C@H](Nc2ncnc3ccc(C(F)(F)F)cc23)C1=O [Example 1, N-((1R,2S,5R)-5-(isopropyl(methyl)amino)-2-((S)-2-oxo-3-(6-(trifluoromethyl)quinazolin-4-ylamino)pyrrolidin-1-yl)cyclohexyl)acetamide]
IC50 [1]: > 80000 nM
clinical score ([2]; 55 mg/kg BID oral from day 1, two of the three studies, p<0.05): significantly reduced the clinical score
total inflammatory cellular infiltrate, histological evaluation of the spinal cord ([2]; Day 22, versus vehicle): did not demonstrate a significant difference
IC50 [3]: 5.5 ± 10 nM
IC50 [4]: 11.4 ± 8 nM
inhibition at 10000 nM [5]: 33%
inhibition at 30000 nM [5]: 61%
bioavailability ([6]; in vivo, po, 1.3 mg/kg): 47%
clearance ([6]; plasma, iv, 1 mg/kg): 23 mL/min/kg
AUC ([6]; plasma, po, 1.3 mg/kg): 0.836 µM·h
PAMPA permeability [7]: 443 ± 114 (8) nm/sec
% inhibition of monocyte/macrophage infiltration ([8]; 1 mg/kg): 38%
% inhibition of monocyte/macrophage infiltration ([8]; 5 mg/kg): 71%
% inhibition of monocyte/macrophage infiltration ([8]; 25 mg/kg): 86%
number of total peritoneal leukocytes obtained by cell counter ([8]; 1, 5, or 25 mg/kg BID oral, 48 hours post TG): dose-dependent reduction
EC50 ([8]; differential leukocyte counts): 3 ± 0.9 nM
EC50 ([8]; flow cytometry): 2.2 ± 0.5 nM
inhibition of monocyte/macrophage influx ([8]; differential leukocyte counts, 1 mg/kg BID): 20%
inhibition of monocyte/macrophage influx ([8]; differential leukocyte counts, 5 mg/kg BID): 62%
inhibition of monocyte/macrophage influx ([8]; differential leukocyte counts, 25 mg/kg BID): 69%
inhibition of monocyte/macrophage infiltration ([8]; 1 mg/kg BID): 38%
inhibition of monocyte/macrophage infiltration ([8]; 5 mg/kg BID): 71%
inhibition of monocyte/macrophage infiltration ([8]; 25 mg/kg BID): 86%
Eos score ([9]; Study 1, 6.5 mg/kg): 1.3 ± 0.8
MNC score (inh %) ([9]; Study 1, 6.5 mg/kg): (19%)
PMN score ([9]; Study 1, 6.5 mg/kg): 0.8 ± 0.3
Total cell score ([9]; Study 1, 6.5 mg/kg): 4.3 ± 1.6
MNC score ([9]; Study 1, 6.5 mg/kg, scale of 0 to 4): 2.2 ± 0.6
Eos score ([9]; Study 1, 13 mg/kg): 1.2 ± 0.6
MNC score (inh %) ([9]; Study 1, 13 mg/kg): (19%)
PMN score ([9]; Study 1, 13 mg/kg): 0.7 ± 0.3
Total cell score ([9]; Study 1, 13 mg/kg): 4.0 ± 0.5
MNC score ([9]; Study 1, 13 mg/kg, scale of 0 to 4): 2.2 ± 0.3
Eos score ([9]; Study 1, 26 mg/kg): 0.5 ± 0^
MNC score (inh %) ([9]; Study 1, 26 mg/kg): (56%)
PMN score ([9]; Study 1, 26 mg/kg): 0.2 ± 0.3
Total cell score ([9]; Study 1, 26 mg/kg): 1.8 ± 0.8
MNC score ([9]; Study 1, 26 mg/kg, scale of 0 to 4): 1.2 ± 0.6
Eos score ([9]; Study 2, 10 mg/kg): 0.3 ± 0.1
MNC score ([9]; Study 2, 10 mg/kg): 0.2 ± 0.2
MNC score (inh %) ([9]; Study 2, 10 mg/kg): (87%)
PMN score ([9]; Study 2, 10 mg/kg): 0
Total cell score ([9]; Study 2, 10 mg/kg): 0.5 ± 0.2
Eos score ([9]; Study 2, 30 mg/kg): 0.6 ± 0.7
MNC score ([9]; Study 2, 30 mg/kg): 0.1 ± 0.3
MNC score (inh %) ([9]; Study 2, 30 mg/kg): (91%)
PMN score ([9]; Study 2, 30 mg/kg): 0.1 ± 0.3
Total cell score ([9]; Study 2, 30 mg/kg): 0.8 ± 0.8
infiltration of other cells types such as eosinophils and neutrophils ([9]; first study): inhibited the infiltration
inhibition of MCP-1 induced infiltration of mononuclear cells to the skin ([9]; first study, 26 mg/kg oral once daily for three days, biopsy 18 hours after MCP-1): 56%
inhibition of MCP-1 induced infiltration of mononuclear cells to the skin ([9]; first study, 13 and 6.5 mg/kg): lower levels of inhibition
inhibition of mononuclear cell infiltration ([9]; 10 mg/kg): 87%
inhibition of mononuclear cell infiltration ([9]; 30 mg/kg): 91%
concentration at 18 h ([10]; 6.5 mg/kg once daily for 3 days, Study 1, 6.5 mg/kg oral once daily 3 days, 18 hours): 53 nM
concentration at 18 h ([10]; 13 mg/kg once daily for 3 days, Study 1, 13 mg/kg oral once daily 3 days, 18 hours): 101 nM
concentration at 18 h ([10]; 26 mg/kg once daily for 3 days, Study 1, 26 mg/kg oral once daily 3 days, 18 hours): 238 nM
concentration at 18 h ([10]; Study 2 (naive monkeys), 10 mg/kg oral once daily 3 days): 34 nM
concentration at 18 h ([10]; Study 2 (naive monkeys), 30 mg/kg oral once daily 3 days): 83 nM
AUC ([11]; male, Sprague-Dawley, plasma, po, 10 mg/kg): 3.79 µM·h
Cl ([11]; IV, dose IV/PO mg/kg: 2k 2.5/25, 8a 6/72, 9c 4/43, Example 1 2/10): 43 mL/min/kg
F % ([11]; dose IV/PO mg/kg: 2k 2.5/25, 8a 6/72, 9c 4/43, Example 1 2/10): 51%
inhibition at 10000 nM ([12]; HEK-293 cells expressing human cardiac sodium channel SCN5A, 10,000 nM): 17%
inhibition at 30000 nM ([12]; HEK-293 cells expressing human cardiac sodium channel SCN5A, 30,000 nM): 19%
Concentration of Mouse MCP-1 in plasma ([13]; 1 mg/kg oral BID): 0.027 nM
Concentration of free Example 1 in plasma ([13]; 1 mg/kg oral BID): 1 nM
% free CCR2 ([13]; 1 mg/kg): 53.7%
% mouse MCP-1 bound CCR2 ([13]; 1 mg/kg): 1.6%
% of Example 1-bound CCR2 ([13]; 1 mg/kg): 44.7%
Concentration of Mouse MCP-1 in plasma ([13]; 5 mg/kg oral BID): 0.043 nM
Concentration of free Example 1 in plasma ([13]; 5 mg/kg oral BID): 4 nM
% free CCR2 ([13]; 5 mg/kg): 22.8%
% mouse MCP-1 bound CCR2 ([13]; 5 mg/kg): 1.1%
% of Example 1-bound CCR2 ([13]; 5 mg/kg): 76.1%
Concentration of Mouse MCP-1 in plasma ([13]; 25 mg/kg oral BID): 0.041 nM
Concentration of free Example 1 in plasma ([13]; 25 mg/kg oral BID): 24 nM
% free CCR2 ([13]; 25 mg/kg): 4.8%
% mouse MCP-1 bound CCR2 ([13]; 25 mg/kg): 0.2%
% of Example 1-bound CCR2 ([13]; 25 mg/kg): 95.0%

Compound: CC(=O)N[C@@H]1C[C@H](N(C)C(C)C)CC[C@@H]1N1CC[C@H](Nc2ncnc3ccc(C(F)(F)F)cc23)C1=O [Form N-2, N-((1R,2S,5R)-5-(isopropyl(methyl)amino)-2-((S)-2-oxo-3-(6-(trifluoromethyl)quinazolin-4-ylamino)pyrrolidin-1-yl)cyclohexyl)acetamide]
moisture-sorption isotherm weight gain [14]: 0.15%

Kd [15]: 0.91 nM
Compound: mouse MCP-1: mouse CCR2 ligand MCP-1 (chemokine)
